Calls of active or inactive are those of the source.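 The calls were made as follows: active = compounds that shift the dex/IL-1 ratio, either lowering it activators or doubling it inhibitors, at 1 µM (some results past the limit were not filed as active); inactive = the rest.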

Consider nine compounds from PubChem BioAssay AID686955 (ICCB-Longwood Screening Facility, Harvard Medical School, 2013).

The subject of one test is NF-kB luciferase reporter cells, IL-1b + dexamethasone, 18 h. In words: GR-specific modulators of NF-kB trans-repression, confirmation, cell-based, luciferase, IL-1B plus dexamethasone (AID 686955). The note with it: 4 uM, dexamethasone conc 1.
On to `COc1ccc(O)c(C(=O)c2ccc(C(=O)O[C@H]3CCCNC[C@@H]3NC(=O)c3ccncc3)cc2)c1F`, for which the assay II/I ratio is 0.85.

Consider `COc1cccc(-n2ncc3c(N/N=C/c4ccncc4)ncnc32)c1`, for which the assay II/I ratio is 0.504.

For `Cn1cc(C2=C(c3cccc(NCC(O)CO)c3)C(=O)NC2=O)c2cc(Cl)ccc21` (stereo unspecified), the assay II/I ratio is 0.664.

As for `Cc1[nH]nc2c1N=C(c1ccccc1F)c1cc(C#N)ccc1N2`, the assay II/I ratio turned out to be 0.66.

Consider `O=C(Nc1n[nH]c2nc(-c3ccc(O)cc3)c(Br)cc12)C1CC1`, for which the assay II/I ratio was 0.935.

For `O=C(NC1NNC2NNC(c3cccnc3)CC21)C1CC1` (stereo unspecified), the assay II/I ratio came to 0.597.

In the case of `COc1cccc(-n2ncc3c(N/N=C/c4ccc(S(C)(=O)=O)cc4)ncnc32)c1`, the assay II/I ratio worked out at 0.326.

With `Cn1cc(C2=C(c3ccccc3[N+](=O)[O-])C(=O)NC2=O)c2ccccc21`, the assay II/I ratio stood at 0.733.

Consider `Cn1cc(C2=C(c3cccc(OCC(O)CO)c3)C(=O)NC2=O)c2ccccc21` (stereo unspecified), for which the assay II/I ratio came to 0.553.

The test is the same for the next values; noted with them: 4 uM, dexamethasone conc 2.
As to `COc1ccc(O)c(C(=O)c2ccc(C(=O)O[C@H]3CCCNC[C@@H]3NC(=O)c3ccncc3)cc2)c1F`, the assay II/I ratio was found to be 0.659.

With `COc1cccc(-n2ncc3c(N/N=C/c4ccncc4)ncnc32)c1`, the assay II/I ratio came to 0.362.

Consider `Cn1cc(C2=C(c3cccc(NCC(O)CO)c3)C(=O)NC2=O)c2cc(Cl)ccc21` (stereo unspecified), for which the assay II/I ratio was determined as 0.47.

Regarding `Cc1[nH]nc2c1N=C(c1ccccc1F)c1cc(C#N)ccc1N2`, the assay II/I ratio stood at 0.386.

With `O=C(Nc1n[nH]c2nc(-c3ccc(O)cc3)c(Br)cc12)C1CC1`, the assay II/I ratio came to 0.684.

Take `O=C(NC1NNC2NNC(c3cccnc3)CC21)C1CC1` (stereo unspecified): the assay II/I ratio is 0.43.

For `COc1cccc(-n2ncc3c(N/N=C/c4ccc(S(C)(=O)=O)cc4)ncnc32)c1`, the assay II/I ratio came out at 0.242.

With `Cn1cc(C2=C(c3ccccc3[N+](=O)[O-])C(=O)NC2=O)c2ccccc21`, the assay II/I ratio turned out to be 0.646.

`Cn1cc(C2=C(c3cccc(OCC(O)CO)c3)C(=O)NC2=O)c2ccccc21` (stereo unspecified): the assay II/I ratio was found to be 0.398.

Still in this test, the particulars now being: at 1 µM.
As to `COc1ccc(O)c(C(=O)c2ccc(C(=O)O[C@H]3CCCNC[C@@H]3NC(=O)c3ccncc3)cc2)c1F`, the normalized assay II/I ratio is 0.93 (inactive).

Take `COc1cccc(-n2ncc3c(N/N=C/c4ccncc4)ncnc32)c1`: the normalized assay II/I ratio was 1.47 (inactive).

As to `Cn1cc(C2=C(c3cccc(NCC(O)CO)c3)C(=O)NC2=O)c2cc(Cl)ccc21` (stereo unspecified), the normalized assay II/I ratio is 1.93 (inactive).

With `Cc1[nH]nc2c1N=C(c1ccccc1F)c1cc(C#N)ccc1N2`, the normalized assay II/I ratio is 1.87 (inactive).

For `O=C(Nc1n[nH]c2nc(-c3ccc(O)cc3)c(Br)cc12)C1CC1`, the normalized assay II/I ratio was 2.27.

Consider `O=C(NC1NNC2NNC(c3cccnc3)CC21)C1CC1` (stereo unspecified), for which the normalized assay II/I ratio was 1.91 (inactive).

For the compound `COc1cccc(-n2ncc3c(N/N=C/c4ccc(S(C)(=O)=O)cc4)ncnc32)c1`, the normalized assay II/I ratio was 1.18 (inactive).

Turning to `Cn1cc(C2=C(c3ccccc3[N+](=O)[O-])C(=O)NC2=O)c2ccccc21`, the normalized assay II/I ratio is 2.39.

`Cn1cc(C2=C(c3cccc(OCC(O)CO)c3)C(=O)NC2=O)c2ccccc21` (stereo unspecified): the normalized assay II/I ratio is 1.68 (inactive).

The test is the same for the next values; noted with them: dexamethasone concentration 2; at 1 µM.
For `COc1ccc(O)c(C(=O)c2ccc(C(=O)O[C@H]3CCCNC[C@@H]3NC(=O)c3ccncc3)cc2)c1F`, the normalized assay II/I ratio stood at 0.89.

Consider `COc1cccc(-n2ncc3c(N/N=C/c4ccncc4)ncnc32)c1`, for which the normalized assay II/I ratio was 1.44.

Regarding `Cn1cc(C2=C(c3cccc(NCC(O)CO)c3)C(=O)NC2=O)c2cc(Cl)ccc21` (stereo unspecified), the normalized assay II/I ratio came to 1.97.

For `Cc1[nH]nc2c1N=C(c1ccccc1F)c1cc(C#N)ccc1N2`, the normalized assay II/I ratio came to 2.07.

Regarding `O=C(Nc1n[nH]c2nc(-c3ccc(O)cc3)c(Br)cc12)C1CC1`, the normalized assay II/I ratio amounted to 2.53.

As to `O=C(NC1NNC2NNC(c3cccnc3)CC21)C1CC1` (stereo unspecified), the normalized assay II/I ratio is 1.94.

`COc1cccc(-n2ncc3c(N/N=C/c4ccc(S(C)(=O)=O)cc4)ncnc32)c1`: the normalized assay II/I ratio came out at 1.17.

In the case of `Cn1cc(C2=C(c3ccccc3[N+](=O)[O-])C(=O)NC2=O)c2ccccc21`, the normalized assay II/I ratio came to 2.62.

In the case of `Cn1cc(C2=C(c3cccc(OCC(O)CO)c3)C(=O)NC2=O)c2ccccc21` (stereo unspecified), the normalized assay II/I ratio stood at 1.68.
